From PubChem BioAssay AID330 (DTP/NCI, 2004)
Where “and” joins values, the source holds several entries; their conditions need not be identical. Equal values may be shown once. Inconclusive results and toxic doses are left out.

System: P388 leukemia ip, CD2F1 mice, survival T/C
Assay: NCI In Vivo Anticancer Drug Screen. Data for tumor model P388 Leukemia (intraperitoneal) in CD2F1 (CDF1) mice
Details: endpoint: median survival time, higher = longer survival
Procedure, shortened: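 Mice carrying the transplanted tumor received test compound or vehicle. Survival was recorded in each group, and the value is the treated-group measurement divided by that of the vehicle-treated control group.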

For `COC1C(O)CC(OC2CC(Oc3cc4cc5c(c(O)c4c(O)c3C)C(=O)[C@@H](OC3CC(OC4CC(OC6CC(C)(O)C(OC(C)=O)C(C)O6)C(O)C(C)O4)C(O)C(C)O3)[C@H]([C@H](OC)C(=O)[C@@H](O)[C@@H](C)O)C5)OC(C)C2OC(C)=O)OC1C` (some centres not stated), the T/C (dose: 0.02 mg/kg/injection, schedule: Q01DX001 (ip), vehicle: other) was 114 % of control, the T/C (dose: 0.02 mg/kg/injection, schedule: Q01DX009 (ip), vehicle: saline sonified) was 150 % of control and the T/C (dose: 0.03 mg/kg/injection, schedule: Q01DX005 (ip), vehicle: saline) was 150 % of control. For the same compound, the T/C (dose: 0.03 mg/kg/injection, schedule: Q01DX005 (iv), vehicle: saline) was 95 % of control, the T/C (dose: 0.03 mg/kg/injection, schedule: Q01DX009 (ip), vehicle: saline) was 154 % of control and the T/C (dose: 0.04 mg/kg/injection, schedule: Q01DX009 (ip), vehicle: saline sonified) was 165 % of control. For the same compound, the T/C (dose: 0.05 mg/kg/injection, schedule: Q01DX005 (ip), vehicle: saline) was 155 % of control, the T/C (dose: 0.06 mg/kg/injection, schedule: Q01DX005 (ip), vehicle: saline) was 175 % of control and the T/C (dose: 0.08 mg/kg/injection, schedule: Q01DX009 (ip), vehicle: saline sonified) was 180 % of control. The T/C (dose: 0.1 mg/kg/injection, schedule: Q01DX005 (ip), vehicle: saline) was 155 % of control, the T/C (dose: 0.1 mg/kg/injection, schedule: Q01DX005 (iv), vehicle: saline) was 98 % of control and the T/C (dose: 0.12 mg/kg/injection, schedule: Q01DX005 (ip), vehicle: saline) was 190 % of control. For the same compound, the T/C (dose: 0.12 mg/kg/injection, schedule: Q04DX003 (ip), vehicle: saline) was 154 % of control, the T/C (dose: 0.15 mg/kg/injection, schedule: Q01DX009 (ip), vehicle: saline sonified) was 180 % of control and the T/C (dose: 0.2 mg/kg/injection, schedule: Q01DX005 (ip), vehicle: saline) was 158 % of control. The T/C (dose: 0.2 mg/kg/injection, schedule: Q01DX005 (iv), vehicle: saline) was 100 % of control, the T/C (dose: 0.25 mg/kg/injection, schedule: Q01DX005 (ip), vehicle: saline) was 220 % of control and the T/C (dose: 0.25 mg/kg/injection, schedule: Q04DX003 (ip), vehicle: saline) was 175 % of control. The T/C (dose: 0.3 mg/kg/injection, schedule: Q01DX009 (ip), vehicle: saline sonified) was 180 % of control, the T/C (dose: 0.3 mg/kg/injection, schedule: Q04DX003 (ip), vehicle: saline sonified) was 181 % of control and the T/C (dose: 0.4 mg/kg/injection, schedule: Q01DX005 (ip), vehicle: saline) was 229 % of control. The T/C (dose: 0.5 mg/kg/injection, schedule: Q01DX001 (ip), vehicle: other) was 158 % of control, the T/C (dose: 0.5 mg/kg/injection, schedule: Q01DX001 (ip), vehicle: saline) was 172 % of control and the T/C (dose: 0.5 mg/kg/injection, schedule: Q04DX003 (ip), vehicle: saline) was 87 % of control.

For `C[C@H](CSC(=O)c1ccccc1)C(=O)N1c2ccccc2C[C@H]1C(=O)O`, the T/C (dose: 60.0 mg/kg/injection, schedule: Q01DX005 (ip), vehicle: saline + Tween-80 + alcohol) was 102 % of control, the T/C (dose: 120.0 mg/kg/injection, schedule: Q01DX005 (ip), vehicle: saline + Tween-80 + alcohol) was 102 % of control and the T/C (dose: 240.0 mg/kg/injection, schedule: Q01DX005 (ip), vehicle: saline + Tween-80 + alcohol) was 104 % of control.

In the case of `CN1CCC(O)CC1C(=O)O` (configuration not stated), the T/C (dose: 50.0 mg/kg/injection, schedule: Q01DX009 (ip), vehicle: saline) was 98 % of control, the T/C (dose: 100.0 mg/kg/injection, schedule: Q01DX009 (ip), vehicle: saline) was 104 % of control and the T/C (dose: 200.0 mg/kg/injection, schedule: Q01DX009 (ip), vehicle: saline) was 105 % of control.

`COc1cc2c(c(OC)c1OC)C(=O)CCC2` was tested, and the T/C (dose: 25.0 mg/kg/injection, schedule: Q04DX003 (ip), vehicle: Klucel (hydroxypropylcellulose) (HPC)) was 100 % of control, the T/C (dose: 50.0 mg/kg/injection, schedule: Q04DX003 (ip), vehicle: Klucel (hydroxypropylcellulose) (HPC)) was 104 % of control and the T/C (dose: 100.0 mg/kg/injection, schedule: Q04DX003 (ip), vehicle: Klucel (hydroxypropylcellulose) (HPC)) was 92 % of control and 93 % of control. For the same compound, the T/C (dose: 400.0 mg/kg/injection, schedule: Q04DX003 (ip), vehicle: Klucel (hydroxypropylcellulose) (HPC)) was 90 % of control.

For `NC1=C(O)C(=O)C(c2cccc3ccccc23)O1` (configuration not stated), the T/C (dose: 60.0 mg/kg/injection, schedule: Q01DX005 (ip), vehicle: saline with Tween-80) was 98 % of control, the T/C (dose: 120.0 mg/kg/injection, schedule: Q01DX005 (ip), vehicle: saline with Tween-80) was 93 % of control and the T/C (dose: 240.0 mg/kg/injection, schedule: Q01DX005 (ip), vehicle: saline with Tween-80) was 88 % of control.
